Data from PMC4578888, “The Validation of Nematode-Specific Acetylcholine-Gated Chloride Channels as Potential Anthelmintic Drug Targets” (PLoS ONE, 2015).

Molecular target: T1, AVR-15 (glutamate-gated chloride channel subunit) (Caenorhabditis elegans, UniProt O17548)
T1 construct: homomeric AVR-15, untagged and with a fluorescent protein tag in the intracellular loop, expressed in Xenopus laevis oocytes
T1 sequence (O17548 21-478): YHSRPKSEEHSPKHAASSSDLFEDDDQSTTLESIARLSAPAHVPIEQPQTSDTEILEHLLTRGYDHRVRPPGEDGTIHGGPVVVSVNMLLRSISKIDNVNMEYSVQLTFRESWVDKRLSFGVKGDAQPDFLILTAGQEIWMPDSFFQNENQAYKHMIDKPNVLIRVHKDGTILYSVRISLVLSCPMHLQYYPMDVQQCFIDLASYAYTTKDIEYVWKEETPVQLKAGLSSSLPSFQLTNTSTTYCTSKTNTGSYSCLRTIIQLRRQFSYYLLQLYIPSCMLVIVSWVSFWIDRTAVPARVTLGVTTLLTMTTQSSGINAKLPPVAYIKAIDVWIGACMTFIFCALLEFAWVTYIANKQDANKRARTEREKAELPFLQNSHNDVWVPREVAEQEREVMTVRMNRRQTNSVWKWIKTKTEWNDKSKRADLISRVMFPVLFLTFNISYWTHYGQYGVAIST
Assay: two-electrode voltage clamp in Xenopus oocytes, dose–response curve
Type: cell-based

SMILES: N[C@@H](CCC(=O)O)C(=O)O [glutamate]
- two-electrode voltage clamp in Xenopus oocytes, dose-response curve: Dose–response curve with the normalized maximal response on the y-axis plotted against the glutamate concentration
